Measured values taken from patent US20230091047A1 (priority 2019, published 2023).
Like-named read-outs stand apart in the source and are kept apart here.

How the values were obtained:
[1] = test system: HBV (HepG2.117 cell line, inducibly HBV producing); experiment: Anti-HBV activity: intracellular HBV DNA by real-time PCR in HepG2.117 cells after 3 days of treatment; type: cell-based, hepatitis B virus
Method: The anti HBV activity was measured using the HepG2.117 cell line, a stable, inducibly HBV producing cell line, which replicates HBV in the absence of doxycycline (Tet-off system). The HepG2 cell line is available from ATCCR under number HB-8065. Transfection of the HepG2 cell line can be as described in Sun and Nassal 2006 Journal of Hepatology 45 (2006) 636-645 “Stable HepG2- and Huh7-based human hepatoma cell lines for efficient regulated expression of infectious hepatitis B virus”.
For the antiviral assay, HBV replication was induced, followed by a treatment with serially diluted compound in 96-well plates. After 3 days of treatment, the antiviral activity was determined by quantification of intracellular HBV DNA using real-time PCR and an HBV specific primer set and probe.

in vitro = type: cell-based; conditions: human, HepG2 or HepG2.117 cells, ATPlite, mean value
Method: Cytotoxicity of the compounds was tested using HepG2 or HepG2.117 cells, incubated for 3 or 4 days in the presence of compounds. The viability of the cells was assessed using the PERKIN ELMER ATPlite Luminescence Assay System.”

[2] = Hepatitis B virus, HepG2.117, 72 h, HepG2.117 cells, 3 days of treatment, intracellular HBV DNA by real-time PCR; mean value; read-out: EC50 (μM, mean value)
[3] = 3-days incubation (unmarked values)
[4] = Hepatitis B virus, HepG2.117, 72 h, HepG2.117 cells, intracellular HBV DNA by real-time PCR, 3 days of treatment, mean value; read-out: EC50 (μM, mean value)
[5] = 3-days incubation (not marked with *)

Compound | EC50 [1, 2] [µM] | CC50 at 3 days (in vitro; [3]) [µM] | EC50 [1, 4] [µM] | CC50 at 3 days (in vitro; [5]) [µM] | EC50 ([1]; HepG2.117 cells, intracellular HBV DNA by real-time PCR, 3 days of treatment, mean value; read-out: EC50 (μM, mean value)) [µM]
C#C[C@H]1CCCN1c1nc2c(c(=O)n1-c1ccc(C(=O)NC)cc1)C[C@@H](C)N(C(=O)c1ccc(Cl)c(Cl)c1)C2 (single isomer, unassigned) [Compound C350, 4-[(6R)-7-(3,4-dichlorobenzoyl)-2-[(2*R)-2-ethynylpyrrolidin-1-yl]-6-methyl-4-oxo-5,6,7,8-tetrahydropyrido[3,4-d]pyrimidin-3(4H)-yl]-N-methylbenzamide] | 0.23 | > 50 | – | – | –
C#C[C@@H]1CCCN1c1nc2c(c(=O)n1-c1ccc(C(=O)NC)cc1)C[C@@H](C)N(C(=O)c1ccc(Cl)c(Cl)c1)C2 (single isomer, unassigned) [Compound C351, 4-[(6R)-7-(3,4-dichlorobenzoyl)-2-[(2*S)-2-ethynylpyrrolidin-1-yl]-6-methyl-4-oxo-5,6,7,8-tetrahydropyrido[3,4-d]pyrimidin-3(4H)-yl]-N-methylbenzamide] | 0.2 | > 50 | – | – | –
CNC(=O)c1ccc(-n2c(N3CCC[C@@H]3C3CC3)nc3c(c2=O)C[C@@H](C)N(C(=O)c2ccc(Cl)c(Cl)c2)C3)cc1 (single isomer, unassigned) [Compound C352, 4-[(6R)-2-[(2*R)-2-cyclopropylpyrrolidin-1-yl]-7-(3,4-dichlorobenzoyl)-6-methyl-4-oxo-5,6,7,8-tetrahydropyrido[3,4-d]pyrimidin-3(4H)-yl]-N-methylbenzamide] | 0.29 | 27.5 | – | – | –
CNC(=O)c1ccc(-n2c(N3CCC[C@H]3C3CC3)nc3c(c2=O)C[C@@H](C)N(C(=O)c2ccc(Cl)c(Cl)c2)C3)cc1 (single isomer, unassigned) [Compound C353, 4-[(6R)-2-[(2*S)-2-cyclopropylpyrrolidin-1-yl]-7-(3,4-dichlorobenzoyl)-6-methyl-4-oxo-5,6,7,8-tetrahydropyrido[3,4-d]pyrimidin-3(4H)-yl]-N-methylbenzamide] | 0.11 | 19.5 | – | – | –
CNC(=O)c1ccc(-n2c(N[C@H](C)c3ccnn3C)nc3c(c2=O)C[C@@H](C)N(C(=O)c2ccc(Cl)c(Cl)c2)C3)cc1 (single isomer, unassigned) [Compound C372a] | 5.42 | > 50 | – | – | –
CNC(=O)c1ccc(-n2c(N[C@@H](C)c3ccnn3C)nc3c(c2=O)C[C@@H](C)N(C(=O)c2ccc(Cl)c(Cl)c2)C3)cc1 (single isomer, unassigned) [Compound C372b] | 2.54 | > 50 | – | – | –
CNC(=O)c1ccc(-n2c(N[C@H](C)c3ccncc3)nc3c(c2=O)C[C@@H](C)N(C(=O)c2ccc(Cl)c(Cl)c2)C3)cc1 (single isomer, unassigned) [Compound C375a] | 3.19 | > 50 | – | – | –
CNC(=O)c1ccc(-n2c(N[C@@H](C)c3ccncc3)nc3c(c2=O)C[C@@H](C)N(C(=O)c2ccc(Cl)c(Cl)c2)C3)cc1 (single isomer, unassigned) [Compound C375b] | 0.62 | > 50 | – | – | –
CNC(=O)c1ccc(-n2c(N[C@H](C)c3cccnc3)nc3c(c2=O)C[C@@H](C)N(C(=O)c2ccc(Cl)c(Cl)c2)C3)cc1 (single isomer, unassigned) [Compound C377a] | – | – | 0.82 | > 50 | –
CNC(=O)c1ccc(-n2c(N[C@@H](C)c3cccnc3)nc3c(c2=O)C[C@@H](C)N(C(=O)c2ccc(Cl)c(Cl)c2)C3)cc1 (single isomer, unassigned) [Compound C377b] | 3.95 | > 50 | – | – | –
CCc1cc(C(=O)NC)ccc1-n1c(NC(C)C)nc2c(c1=O)C[C@@H](C)N(C(=O)c1ccc(Cl)c(Cl)c1)C2 (single isomer, unassigned) [Compound C383a] | – | – | 0.32 | > 50 | –
CNC(=O)c1ccc(-n2c(N[C@@H](C)c3ccccc3)nc3c(c2=O)C[C@@H](C)N(C(=O)c2ccc(Cl)c(Cl)c2)C3)c(Cl)c1 (single isomer, unassigned) [Compound C386a] | – | – | 0.08 | > 50 | –
CNC(=O)c1ccc(-n2c(N[C@@H](C)C3CC3)nc3c(c2=O)C[C@@H](C)N(C(=O)c2ccc(Cl)c(Cl)c2)C3)c(Cl)c1 (single isomer, unassigned) [Compound C387a] | – | – | 0.05 | > 50 | –
CC(C)Nc1nc2c(c(=O)n1-c1ccc(-c3nccn3C)cc1Cl)C[C@@H](C)N(C(=O)c1ccc(Cl)c(Cl)c1)C2 (single isomer, unassigned) [Compound C392a] | – | – | 0.16 | 22.7 | –
CNC(=O)c1ccc(-n2c(N[C@H](C)c3cccc(OC)c3)nc3c(c2=O)C[C@@H](C)N(C(=O)c2ccc(Cl)c(Cl)c2)C3)cc1 (single isomer, unassigned) [Compound C394a] | – | – | 32.5 | > 50 | –
CNC(=O)c1ccc(-n2c(N[C@@H](C)c3cccc(OC)c3)nc3c(c2=O)C[C@@H](C)N(C(=O)c2ccc(Cl)c(Cl)c2)C3)cc1 (single isomer, unassigned) [Compound C394b] | – | – | 0.15 | 29 | –

Compound | EC50 [1, 2] [µM] | CC50 at 3 days (in vitro; [3]) [µM] | EC50 [1, 4] [µM] | CC50 at 3 days (in vitro; [5]) [µM] | EC50 ([1]; HepG2.117 cells, intracellular HBV DNA by real-time PCR, 3 days of treatment, mean value; read-out: EC50 (μM, mean value)) [µM]
CNC(=O)c1ccc(-n2c(N3CCC[C@@H]3c3ccccc3)nc3c(c2=O)C[C@@H](C)N(C(=O)c2ccc(Cl)c(Cl)c2)C3)cc1 (single isomer, unassigned) [Compound C401a] | – | – | 0.36 | 13.8 | –
CNC(=O)c1ccc(-n2c(N3CCC[C@H]3c3ccccc3)nc3c(c2=O)C[C@@H](C)N(C(=O)c2ccc(Cl)c(Cl)c2)C3)cc1 (single isomer, unassigned) [Compound C401b] | – | – | 0.83 | 18.2 | –
CNC(=O)c1ccc(-n2c(N[C@H](C)c3ccccc3OC)nc3c(c2=O)C[C@@H](C)N(C(=O)c2ccc(Cl)c(Cl)c2)C3)cc1 (single isomer, unassigned) [Compound C402a] | – | – | 0.32 | 13.8 | –
CNC(=O)c1ccc(-n2c(N[C@@H](C)c3ccccc3OC)nc3c(c2=O)C[C@@H](C)N(C(=O)c2ccc(Cl)c(Cl)c2)C3)cc1 (single isomer, unassigned) [Compound C402b] | – | – | 0.08 | 18.8 | –
CNC(=O)c1ccc(-n2c(N[C@H](C)C3CCC3)nc3c(c2=O)C[C@@H](C)N(C(=O)c2ccc(Cl)c(Cl)c2)C3)cc1 (single isomer, unassigned) [Compound C406a] | – | – | 0.18 | 31.3 | –
CNC(=O)c1ccc(-n2c(N[C@@H](C)C3CCC3)nc3c(c2=O)C[C@@H](C)N(C(=O)c2ccc(Cl)c(Cl)c2)C3)cc1 (single isomer, unassigned) [Compound C406b] | – | – | 0.16 | 24.5 | –
COc1ccc([C@H](C)Nc2nc3c(c(=O)n2-c2ccc(NC(C)=O)cc2)C[C@@H](C)N(C(=O)c2ccc(Cl)c(Cl)c2)C3)cc1 (single isomer, unassigned) [Compound C410b] | – | – | – | > 50 | 0.11
CNC(=O)c1ccc(-n2c(N[C@H](C)c3ccc(S(C)(=O)=O)cc3)nc3c(c2=O)C[C@@H](C)N(C(=O)c2ccc(Cl)c(Cl)c2)C3)cc1 (single isomer, unassigned) [Compound C412a] | – | – | 0.94 | > 50 | –
CNC(=O)c1ccc(-n2c(N[C@@H](C)c3ccc(S(C)(=O)=O)cc3)nc3c(c2=O)C[C@@H](C)N(C(=O)c2ccc(Cl)c(Cl)c2)C3)cc1 (single isomer, unassigned) [Compound C412b] | – | – | > 10 | > 50 | –
CNC(=O)c1ccc(-n2c(N[C@H](C)c3ccc(C(F)(F)F)cc3)nc3c(c2=O)C[C@@H](C)N(C(=O)c2ccc(Cl)c(Cl)c2)C3)cc1 (single isomer, unassigned) [Compound C413a] | – | – | 0.06 | 9 | –
CNC(=O)c1ccc(-n2c(N[C@@H](C)c3ccc(C(F)(F)F)cc3)nc3c(c2=O)C[C@@H](C)N(C(=O)c2ccc(Cl)c(Cl)c2)C3)cc1 (single isomer, unassigned) [Compound C413b] | – | – | 4.13 | 8.3 | –
CNC(=O)c1ccc(-n2c(N[C@H](C)c3ccc4c(c3)OCO4)nc3c(c2=O)C[C@@H](C)N(C(=O)c2ccc(Cl)c(Cl)c2)C3)cc1 (single isomer, unassigned) [Compound C414a] | – | – | 0.29 | > 50 | –
CNC(=O)c1ccc(-n2c(N[C@@H](C)c3ccc4c(c3)OCO4)nc3c(c2=O)C[C@@H](C)N(C(=O)c2ccc(Cl)c(Cl)c2)C3)cc1 (single isomer, unassigned) [Compound C414b] | – | – | 0.06 | > 50 | –
CNC(=O)c1ccc(-n2c(N[C@H](C)c3ccc(OC)c(OC)c3)nc3c(c2=O)C[C@@H](C)N(C(=O)c2ccc(Cl)c(Cl)c2)C3)cc1 (single isomer, unassigned) [Compound C415a] | – | – | 1.06 | 32.9 | –
CNC(=O)c1ccc(-n2c(N[C@@H](C)c3ccc(OC)c(OC)c3)nc3c(c2=O)C[C@@H](C)N(C(=O)c2ccc(Cl)c(Cl)c2)C3)cc1 (single isomer, unassigned) [Compound C415b] | – | – | 0.12 | 27.6 | –
